Target: T1, human mAChR M4 (Homo sapiens, UniProt P08173)
T1 construct: expressed in transfected cells
T1 sequence (P08173 1-479): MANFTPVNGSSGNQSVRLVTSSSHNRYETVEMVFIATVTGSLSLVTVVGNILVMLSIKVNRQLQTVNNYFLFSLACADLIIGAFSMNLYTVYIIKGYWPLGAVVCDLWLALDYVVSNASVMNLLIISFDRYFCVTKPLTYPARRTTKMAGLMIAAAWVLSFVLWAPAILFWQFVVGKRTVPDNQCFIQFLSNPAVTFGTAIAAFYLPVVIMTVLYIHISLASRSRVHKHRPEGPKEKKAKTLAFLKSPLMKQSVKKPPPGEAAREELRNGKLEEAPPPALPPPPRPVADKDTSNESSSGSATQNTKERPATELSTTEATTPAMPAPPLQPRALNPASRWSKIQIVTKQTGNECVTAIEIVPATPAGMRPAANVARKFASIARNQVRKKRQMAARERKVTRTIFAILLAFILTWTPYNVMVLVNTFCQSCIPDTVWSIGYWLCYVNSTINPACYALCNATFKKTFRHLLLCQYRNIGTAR
Experiment: mAChR M4 cell-based functional assay (calcium mobilization, CHO-K1 hM4-Gqi5 cells)
Details: for Emax at 30 µM: CHO-K1, % ACh maximum at 30 μM, human M4; for EC50: positive allosteric modulator activity, increase in the EC20 acetylcholine response, CHO-K1 hM4-Gqi5 cells, read-out: Human M4 EC50; for Emax: CHO-K1
In short: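 CHO-K1 cells stably expressing human M4 with chimeric Gqi5, loaded with Fluo-4 AM; compounds given as 11-point 1:3 curves and calcium flux read on FDSS at 1 Hz. Acetylcholine EC20 added at 144 s, EC80 at 230 s; agonist, PAM (EC20 potentiation) and antagonist (EC80 inhibition) EC50/Emax from four-parameter fits.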

Structure (SMILES)	Emax at 30 µM [%]	EC50 [nM]	Emax [%]
Cc1cc(C#N)cnc1N1CCc2ncc(OCCOc3ccc(F)cc3)cc2C1 [Example 428, 6-(3-(2-(4-fluorophenoxy)ethoxy)-7,8-dihydro-1,6-naphthyridin-6(5H)-yl)-5-methylnicotinonitrile]	59	2350	–
Cc1c(C#N)nnc(N2CCc3ncc(Nc4ccccc4C#N)cc3C2)c1C [compound 41, 6-[3-(2-cyanoanilino)-7,8-dihydro-5H-1,6-naphthyridin-6-yl]-4,5-dimethyl-pyridazine-3-carbonitrile]	46	483	–
Cc1cc(C(=O)NCc2ccncc2)cnc1N1CCc2ncc(-c3ccc(C4CC4)nc3)cc2C1 [Example 483, 6-(3-(6-cyclopropylpyridin-3-yl)-7,8-dihydro-1,6-naphthyridin-6(5H)-yl)-5-methyl-N-(pyridin-4-ylmethyl)nicotinamide]	84	313	–
Cc1cc(C#N)cnc1N1CCc2ncc(C3CCC3)cc2C1 [Example 403, 6-(3-cyclobutyl-7,8-dihydro-1,6-naphthyridin-6(5H)-yl)-5-methylnicotinonitrile]	91	84	–
Cc1cc(C(=O)NC2(C#N)CC2)nnc1N1CCc2ncc(N3CCCn4nccc43)cc2C1 [Example 525, N-(1-cyanocyclopropyl)-6-(3-(6,7-dihydropyrazolo[1,5-a]pyrimidin-4(5H)-yl)-7,8-dihydro-1,6-naphthyridin-6(5H)-yl)-5-methylpyridazine-3-carboxamide]	82	11	–
Cc1cc(C(=O)NCc2ccno2)cnc1N1CCc2ncccc2C1 [compound 123, 6-(7,8-dihydro-5H-1,6-naphthyridin-6-yl)-N-(isoxazol-5-ylmethyl)-5-methyl-pyridine-3-carboxamide]	82	≥ 10000	–
Cc1cc(C(=O)N2CCCC2)nnc1N1CCc2ncc(N3CCCn4nccc43)cc2C1 [Example 488, (6-(3-(6,7-dihydropyrazolo[1,5-a]pyrimidin-4(5H)-yl)-7,8-dihydro-1,6-naphthyridin-6(5H)-yl)-5-methylpyridazin-3-yl)(pyrrolidin-1-yl)methanone]	89	217	–
Cc1cnc2c(c1)CN(c1nnc(C#N)c(C)c1C)CC2 [compound 117, 4,5-dimethyl-6-(3-methyl-7,8-dihydro-5H-1,6-naphthyridin-6-yl)pyridazine-3-carbonitrile]	–	3650	55
Cc1cc(C#N)nnc1N1CCc2ncc(N3CCCn4nc(C(C)(C)C)cc43)cc2C1 [Example 418, 6-(3-(2-(tert-butyl)-6,7-dihydropyrazolo[1,5-a]pyrimidin-4(5H)-yl)-7,8-dihydro-1,6-naphthyridin-6(5H)-yl)-5-methylpyridazine-3-carbonitrile]	80	516	–
Cc1cc(C(=O)NC23CC(F)(C2)C3)cnc1N1CCc2ncc(-c3cn(C)nc3C)cc2C1 [Example 477, 6-(3-(1,3-dimethyl-1H-pyrazol-4-yl)-7,8-dihydro-1,6-naphthyridin-6(5H)-yl)-N-(3-fluorobicyclo[1.1.1]pentan-1-yl)-5-methylnicotinamide]	80	2470	–
FC(F)(F)c1cnc2c(c1)CN(c1nc(C3CC3)nc3c1CCCC3)CC2 [compound 266, 2-cyclopropyl-4-(3-(trifluoromethyl)-7,8-dihydro-1,6-naphthyridin-6(5H)-yl)-5,6,7,8-tetrahydroquinazoline]	38	4570	–
Cc1cc(C(=O)NCc2ccc(-n3cccn3)cc2)cnc1N1CCc2ncccc2C1 [compound 67, 6-(7,8-dihydro-5H-1,6-naphthyridin-6-yl)-5-methyl-N-[(4-pyrazol-1-ylphenyl)methyl]pyridine-3-carboxamide]	55	1940	–
[2H]C([2H])([2H])c1cnc2c(c1)CN(c1nnc(C#N)cc1C)CC2 [Example 421, 5-methyl-6-(3-(methyl-d3)-7,8-dihydro-1,6-naphthyridin-6(5H)-yl)pyridazine-3-carbonitrile]	–	336	89
Cc1c(C#N)nnc(N2CCc3ncc(Nc4cc(Cl)cnc4F)cc3C2)c1C [compound 82, 6-[3-[(5-chloro-2-fluoro-3-pyridyl)amino]-7,8-dihydro-5H-1,6-naphthyridin-6-yl]-4,5-dimethyl-pyridazine-3-carbonitrile]	82	157	–
Cc1c(C#N)nnc(N2CCc3ncccc3C2)c1C [compound 118, 6-(7,8-dihydro-5H-1,6-naphthyridin-6-yl)-4,5-dimethyl-pyridazine-3-carbonitrile]	–	2820	92
Cc1cc(C#N)cnc1N1CCc2ncc(Nc3cccnc3F)cc2C1 [compound 166, 6-[3-[(2-fluoro-3-pyridyl)amino]-7,8-dihydro-5H-1,6-naphthyridin-6-yl]-5-methyl-pyridine-3-carbonitrile]	–	45.1	106
Cc1cc(C(=O)NCc2ccc3ncnn3c2)cnc1N1CCc2ncccc2C1 [compound 151, 6-(7,8-dihydro-5H-1,6-naphthyridin-6-yl)-5-methyl-N-([1,2,4]triazolo[1,5-a]pyridin-6-ylmethyl)pyridine-3-carboxamide]	67	3250	–
Cc1cc(C#N)cnc1N1Cc2cc(C(F)(F)F)cnc2CC1C (stereo not drawn) [Example 366, 5-methyl-6-(7-methyl-3-(trifluoromethyl)-7,8-dihydro-1,6-naphthyridin-6(5H)-yl)nicotinonitrile]	96	305	–
Cc1c(C#N)nnc(N2CCc3ncc(-c4ccns4)cc3C2)c1C [compound 292, 6-(3-(isothiazol-5-yl)-7,8-dihydro-1,6-naphthyridin-6(5H)-yl)-4,5-dimethylpyridazine-3-carbonitrile]	86	163	–
Cc1c(C#N)nnc(N2CCc3ncc(-c4ccnc(Cl)c4F)cc3C2)c1C [compound 73, 6-[3-(2-chloro-3-fluoro-4-pyridyl)-7,8-dihydro-5H-1,6-naphthyridin-6-yl]-4,5-dimethyl-pyridazine-3-carbonitrile]	50	940	–
Cc1cc(C(=O)N2CC3(COC3)C2)nnc1N1CCc2ncc(Nc3ccnn3C)cc2C1 [Example 561, (5-methyl-6-(3-((1-methyl-1H-pyrazol-5-yl)amino)-7,8-dihydro-1,6-naphthyridin-6(5H)-yl)pyridazin-3-yl)(2-oxa-6-azaspiro[3.3]heptan-6-yl)methanone]	82	169	–
Cc1cc(F)c(F)cc1-c1cnc2c(c1)CN(c1ncc(C#N)cc1C)CC2 [Example 595, 6-(3-(4,5-difluoro-2-methylphenyl)-7,8-dihydro-1,6-naphthyridin-6(5H)-yl)-5-methylnicotinonitrile]	38	4470	–
Cc1cc(C(=O)NCc2cn3ccccc3n2)cnc1N1CCc2ncccc2C1 [compound 120]	64	2680	–
Cc1nc(Cl)c(C)c(N2Cc3cc(Br)cnc3C(C)(C)C2)n1 [compound 236, 3-bromo-6-(6-chloro-2,5-dimethylpyrimidin-4-yl)-8,8-dimethyl-5,6,7,8-tetrahydro-1,6-naphthyridine]	–	≥ 10000	29
